Assay results: patent publication US4788211A, “Antifungal compound and AFC complex produced from actinomadura SCC 1838” (priority 1987, dated 1988)
Converted amounts (≈) assume the structure as drawn.

Columns and labels:
[1] = test system: Dermatophytes (six species); experiment: in vitro antifungal activity (geometric mean MIC), dermatophytes; assay type: cell-based; conditions: for MIC: Dermatophytes (six species)
Text: (§1) The in vitro antifungal results are summarized in Table II and provide the geometric mean MIC (mcg/mL).

iv LD50 in mice = conditions: mouse, in vivo
Candida (seven species) = experiment: in vitro antifungal activity (geometric mean MIC), Candida; assay type: cell-based; conditions: for MIC: Candida, Candida (seven species)
Text: as §1

Candida = experiment: intravaginal Candida infection in hamsters; assay type: in vivo
[2] = SDB (Sabouraud dextrose broth medium)

SMILES: N=C(N)NCCCCCCCCC(O)CCCCCCCC1NC(=N)NC1CC(O)CNC(=N)N (stereo not drawn) [compound of this invention]
- MIC ([1]; MA Medium): 2.5 µg/mL (≈ 5.02 µM)
- MIC [1, 2]: ≤ 0.13 µg/mL
- in vitro antifungal activity ([1]; six species of dermatophytes): very good in vitro antifungal activity
- LD50 (iv LD50 in mice): ~1.5 mg/kg
- MIC (Candida (seven species); EMEM (Eagles Minimum Essential Medium)): < 0.03 µg/mL
- MIC (Candida (seven species); MA Medium): ≤ 1.4 µg/mL
- MIC (Candida (seven species); [2]): ≥ 58 µg/mL
- in vitro antifungal activity (Candida (seven species); seven species of Candida): very good in vitro antifungal activity
- activity against an intravaginal Candida infection (Candida): slight activity
